Source: publication PMC8406801, “Naringenin Inhibits Platelet Activation and Arterial Thrombosis Through Inhibition of Phosphoinositide 3-Kinase and Cyclic Nucleotide Signaling” (Frontiers in Pharmacology, 2021)
“And” between values parts separate entries of the source, which are not always exact repeats. Identical values can stand only once.

Assays:
PRP of treated rats = test: Ex vivo ADP (5 μM)-induced platelet aggregation after oral dosing; format: in vivo, rat; settings: for Aggregation (%): ex vivo, Figure 8A; for ADP-induced platelet aggregation ex vivo: rats, ADP 5 μM, mean ± SD, n = 6, vehicle 63.2 ± 3.6
Experimental: Male SD rats were randomly divided into 5 groups with 6 rats in each group. […] Sixty minutes after the last sample treatment, blood was drawn from the abdominal aorta of rats into the siliconized vacutainers containing 1:9 (v/v) 3.8% sodium citrate. The collected blood was centrifuged at 100 × g for 10 min at room temperature to obtain PRP. […] The platelet counts of PRP were adjusted to 4×10^8 cells/mL using PPP. PRP was incubated for 5 min at 37°C and then stimulated by ADP (5 μM). The maximum platelet aggregation rate was determined as mentioned above.

[1] = test system: VASP Ser239 phosphorylation; test: Immunoblotting of phospho-VASP (Ser239) in ADP-stimulated washed platelets, with or without PKA, PKG, PKC inhibitors; format: cell-based, rat; settings: for p-VASP(Ser239) / GAPDH (Fold to ADP only) / p-VASP(Ser239) / GAPDH (raw data): ADP-stimulated, Figure 7C
Experimental: For in vitro platelet aggregation, aliquots of washed platelets were preincubated with vehicle or various concentrations of naringenin for 5 min and stimulated with ADP (10 μmol/L) under stirring at 37°C for 5 min. For ex vivo platelet aggregation, PRP was incubated at 37°C for 5 min and stimulated with ADP (5 μmol/L) under stirring at 37 °C. The platelet aggregation was terminated by adding ethylenediaminetetraacetic acid (EDTA; 10 mM). Total protein was prepared using RIPA lysis buffer and protein content was determined by bicinchoninic acid (BCA) protein assay kit. Equal amounts of platelet proteins (30 μg) were separated on 10% SDS polyacrylamide gel electrophoresis (SDS-PAGE) and then transferred to poly vinylidene difluoride (PVDF) membranes and subjected to western blot. Blots were blocked with TBS-Tween 20 containing 5% BSA and probed with primary antibodies diluted in blocking solution at 4°C overnight followed by incubation with the corresponding HRP secondary antibodies. The protein bands were visualized using enhanced chemiluminescence (ECL).
VASP is a substrate for cAMP- and cGMP- dependent protein kinases, which mediate cAMP- and cGMP-dependent inhibitory signaling in platelets, respectively. Increased cAMP levels followed by the activation of cAMP-dependent protein kinase A (PKA) phosphorylates VASP at position Ser157, whereas the elevation of cGMP leads to VASP phosphorylation at position Ser239 by cGMP-dependent protein kinase G (PKG) ([Aszódi et al., 1999]; [Li et al., 2003a]). To further examine whether naringenin modulates cAMP- or cGMP-mediated inhibitory signaling, the phosphorylation of VASP (Ser157 and Ser239) in washed platelets on stimulation with ADP were measured in the absence or presence of naringenin (100, 200, 400, and 800 μM). […] To further confirm the antiplatelet effects of naringenin through PKA-dependent signaling, the effects of naringenin on platelet aggregation were measured in the presence of PKG inhibitor (Rp-8-Br-PET-cGMPS) and PKA inhibitor (H89).
FIGURE 7 Naringenin promotes VASP phosphorylation. The effects of naringenin on phosphorylation of VASP (at positions Ser 157 and Ser239) were measured in washed platelets upon stimulation with ADP (10 μmol/L) by western blotting (A). The blots shown are representative of three separate experiments. The phosphorylation levels were quantified by ImageJ 1.47v software. The level of phosphorylation obtained with vehicle control (0 μM) was taken as 1 (B,C). R represents the phosphorylation level in resting platelets. Data are expressed as means ± SD (n = 3). *p < 0.05, ***p < 0.001 compared with the vehicle control group. VASP phosphorylation at Ser239 was also analyzed in washed platelets incubated with 5 μmol/L PKA (H89), 30 μmol/L PKG (Rp-8-Br-PET-cGMPS), or 5 μmol/L PKC (GF109203X) inhibitors before treatment with naringenin (D). Washed platelets were incubated with vehicle or naringenin (200 μmol/L) at 37°C in the presence or absence of 5 μmol/L PKA (H89) or 30 μmol/L PKG (Rp-8-Br-PET-cGMPS) inhibitors. After treatment, platelets were stimulated with ADP (10 μmol/L) to trigger aggregation (E). Data are expressed as means ± SD (n = 6). ***p < 0.001 compared with the ADP-treated group, ^# p < 0.05, ^### p < 0.001 compared with naringenin alone or H89 alone.

O=C1C[C@@H](c2ccc(O)cc2)Oc2cc(O)cc(O)c21 [Naringenin]
Aggregation (%) (PRP of treated rats; naringenin 200mg/kg): 44.3% and 43.6% and 49.2% and 46.7% and 39.1% and 43%
Aggregation (%) (PRP of treated rats; naringenin 400mg/kg): 34.4% and 37.3% and 35.4% and 28% and 25.8% and 22.9%
Aggregation (%) (PRP of treated rats; naringenin 800mg/kg): 12.7% and 17.8% and 16.5% and 21.5% and 19.3% and 11.6%
ADP-induced platelet aggregation ex vivo (PRP of treated rats; oral 200 mg/kg once a day for 7 days): 44.3 ± 3.4%
ADP-induced platelet aggregation ex vivo (PRP of treated rats; oral 400 mg/kg once a day for 7 days): 30.6 ± 5.9%
ADP-induced platelet aggregation ex vivo (PRP of treated rats; oral 800 mg/kg once a day for 7 days): 16.6 ± 3.8%
phosphorylation of VASP at Ser239 ([1]; ADP-stimulated washed platelets, 100, 200, 400, and 800 μM): induced the phosphorylation of VASP at Ser239
p-VASP(Ser239) / GAPDH (Fold to ADP only) ([1]; naringenin 100 μM): 5.3418 and 4.6396 and 5.0239
p-VASP(Ser239) / GAPDH (raw data) ([1]; naringenin 100 μM): 0.6957 and 0.6043 and 0.6543
p-VASP(Ser239) / GAPDH (Fold to ADP only) ([1]; naringenin 200 μM): 4.4032 and 4.7219 and 3.7689
p-VASP(Ser239) / GAPDH (raw data) ([1]; naringenin 200 μM): 0.5735 and 0.6150 and 0.4909
p-VASP(Ser239) / GAPDH (Fold to ADP only) ([1]; naringenin 400 μM): 4.5890 and 4.9045 and 3.3393
p-VASP(Ser239) / GAPDH (raw data) ([1]; naringenin 400 μM): 0.5977 and 0.6388 and 0.4349
p-VASP(Ser239) / GAPDH (Fold to ADP only) ([1]; naringenin 800 μM): 5.3132 and 6.0564 and 4.7205
p-VASP(Ser239) / GAPDH (raw data) ([1]; naringenin 800 μM): 0.6920 and 0.7888 and 0.6148
